The source of these data is ChEMBL document CHEMBL4118182, “Straightforward hit identification approach in fragment-based discovery of bromodomain-containing protein 4 (BRD4) inhibitors” (Bioorg Med Chem, 2018).

Active and inactive are the calls of the source. No cut-off for these calls is given here.

Data set [1] has as its target T1, Bromodomain-containing protein 4 (Homo sapiens, UniProt O60885). As to the kind of experiment: Inhibition of recombinant human N-terminal His6-tagged BRD4 by TR-FRET assay.
Data set [2] has as its target T1, Bromodomain-containing protein 4. As to the kind of experiment: Inhibition of recombinant human N-terminal His6-tagged BRD4 at 20 uM by TR-FRET assay relative to control.
Data set [3] is described as follows: Solubility of the compound in aqueous buffer at 1 mM. Type of data set: physicochemical. To be noted: 1000 µM.
The target of data set [4] is T1, Bromodomain-containing protein 4. As to the kind of experiment: Binding affinity to recombinant human N-terminal His6-tagged BRD4 bromodomain 1 (44 to 168 residues) expressed in Escherichia coli BL21(DE3) assessed as change in melting temperature at 20 uM by differential scanning fluorimetry.
The target is the same in data set [5]. As to the kind of experiment: Binding affinity to recombinant human N-terminal His6-tagged BRD4 bromodomain 1 (44 to 168 residues) expressed in Escherichia coli BL21(DE3) assessed as change in melting temperature at 40 uM by differential scanning fluorimetry.
Data set [6] can be described thus: Solubility of the compound in DMSO at 200 mM. Type of data set: physicochemical. To be noted: 200000 µM.
The target of data set [7] is T1, Bromodomain-containing protein 4. Nature of the data set: Binding affinity to recombinant human N-terminal His6-tagged BRD4 bromodomain 1 (44 to 168 residues) expressed in Escherichia coli BL21(DE3) assessed as change in melting temperature at 10 uM by differential scanning fluorimetry.
Data set [8] has the same target. As to the kind of experiment: Binding affinity to recombinant human N-terminal His6-tagged BRD4 bromodomain 1 (44 to 168 residues) expressed in Escherichia coli BL21(DE3) assessed as increase in melting temperature at 50 to 200 uM by differential scanning fluorimetry.
Data set [9] concerns the target Carbonic anhydrase 2 (Bos taurus) (UniProt P00921). As to the kind of experiment: Binding affinity to bovine carbonic anhydrase-2 assessed as change in melting temperature at 20 uM by differential scanning fluorimetry.

Carbonic anhydrase 2 (Bos taurus), sequence (P00921 2-260 limits assumed): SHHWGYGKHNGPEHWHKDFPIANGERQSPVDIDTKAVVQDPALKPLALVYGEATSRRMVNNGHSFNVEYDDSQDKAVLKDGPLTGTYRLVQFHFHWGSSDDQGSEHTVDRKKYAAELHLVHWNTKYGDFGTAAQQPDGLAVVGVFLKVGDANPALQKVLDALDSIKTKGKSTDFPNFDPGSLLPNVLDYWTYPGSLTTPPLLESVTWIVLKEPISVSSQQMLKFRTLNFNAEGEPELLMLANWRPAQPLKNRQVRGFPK

As to `Cn1c(=O)n(C)c2cc(NC(=O)c3cc4c(s3)CCC4)ccc21`, the 50% inhibitory concentration (IC50) in data set [1] worked out at 1.9 µM. The inhibition in data set [2] came to 76.5%. Also, the solubility entry in data set [3] and in data set [6] was “Soluble” in each case. For the same molecule, the ΔTm in [4] is 1.88 °C. Further, the deltaTm in data set [5] was > 1 K; in data set [7] it was > 0.5 K; in data set [9] it was > 0.5 K. Further, the outcome in data set [8] was Active.
With `Cc1cc2cc(NC(=O)c3sc4nc(C(F)(F)F)ccc4c3C)ccc2[nH]1`, in [1], the IC50 came out at 24 µM. Further, the inhibition in [2] was found to be 72.7%. Further, the solubility entry in data set [3] and in data set [6] was “Soluble” in each case. In addition, in data set [4], the ΔTm was determined as 1.39 °C. For the same molecule, the deltaTm in data set [5] was > 1 K; in [7] it was > 0.5 K; in data set [9], > 0.5 K. The result in data set [8] was Active.
In the case of `Cc1cc2cc(N)ccc2[nH]1`, in data set [2], the inhibition result is “Active”. Besides, the solubility entry in [3] and in data set [6] was “Soluble” in each case. Also, the ΔTm in data set [4] amounted to 1.4 °C. Also, the values for the deltaTm in data set [5], in [7] and in [9] were > 1 K, > 0.5 K and > 0.5 K, respectively. Besides, the result in [8] was Active.
As to `Cc1nc(-c2cccc(N)c2)cs1`, the inhibition result in data set [2] was “inactive”. For the same molecule, the solubility result in data set [3] and in data set [6] was “Soluble” each time. In addition, the results for the deltaTm in data set [5], in [7] and in data set [9] were > 1 K, > 0.5 K and > 0.5 K, respectively. The outcome in data set [8] was Active.
For `Cc1cc2cc(NC(=O)c3ccc(Oc4ccc(C(F)(F)F)cn4)cc3)ccc2[nH]1`, the IC50 in data set [1] stood at 27 µM. Also, the inhibition in data set [2] is 63.3%. The solubility entry in data set [3] and in [6] was “Soluble” throughout. In addition, the ΔTm in [4] was 1.32 °C. Also, the deltaTm was > 1 K in data set [5], > 0.5 K in data set [7] and > 0.5 K in data set [9]. Moreover, the outcome in data set [8] was Active.
With `Cc1nc(-c2cccc(NC(=O)c3ccc4[nH]c(C)c(C)c4c3)c2)cs1`, the IC50 in [1] was 7.4 µM. Further, the inhibition in data set [2] was found to be 80.5%. Moreover, the solubility result in data set [3] and in data set [6] was “Soluble” each time. Moreover, the ΔTm in [4] came to 1.2 °C. The deltaTm in data set [5] is > 1 K; in [7], > 0.5 K; in [9] it was > 0.5 K. Moreover, the result in [8] was Active.
As to `COc1ccc(OC)c(CCC(=O)Nc2ccc3c(c2)n(C)c(=O)n3C)c1`, in data set [1], the concentration for half-maximal inhibition (IC50) came out at 60 µM. Further, in [2], the inhibition stood at 67%. The solubility result in data set [3] and in [6] was “Soluble” each time. In addition, the ΔTm in data set [4] came to 0.82 °C. The deltaTm in [5] is > 1 K; in data set [7] it was > 0.5 K; in [9], > 0.5 K. Further, the result in data set [8] was Active.
As to `Cn1cc(NC(=O)c2occc2COc2ccccc2)ccc1=O`, the IC50 in data set [1] turned out to be 3 µM. The inhibition in data set [2] came out at 64.4%. Besides, the solubility entry in data set [3] and in data set [6] was “Soluble” in each case. Besides, the ΔTm in data set [4] amounted to 1.2 °C. Further, the deltaTm in data set [5] is > 1 K; in [7] it was > 0.5 K; in data set [9], > 0.5 K. Moreover, in data set [8], the outcome was Active.
Take `Nc1ccc2nc(N3CCCC3)sc2c1`: the inhibition entry in data set [2] was “Active”. Further, the solubility result in data set [3] and in data set [6] was “Soluble” in each case. For the same molecule, the ΔTm in data set [4] was found to be 1.7 °C. Further, the figures for the deltaTm in data set [5], in data set [7] and in data set [9] were > 1 K, > 0.5 K and > 0.5 K, respectively. Moreover, the result in [8] was Active.
As to `O=C1C(=O)N(CCCOc2ccccc2)c2ccc(Cl)cc21`, the IC50 in [1] was > 100 µM. In addition, the inhibition in [2] amounted to 65.9%. For the same molecule, the solubility result in data set [3] and in data set [6] was “Soluble” in each case. In addition, the ΔTm in [4] was -2.63 °C. In addition, the deltaTm in data set [5] is > 1 K; in [7] it was > 0.5 K; in [9] it was > 0.5 K. Moreover, the result in data set [8] was inactive.
As to `COc1cccc(C(=O)Nc2ccc3c(c2)n(C)c(=O)n3C)c1`, in data set [1], the IC50 came to 15.8 µM.
Take `Cn1c(=O)n(C)c2cc(N)ccc21`: the inhibition entry in data set [2] was “Active”. Further, the solubility result in [3] and in data set [6] was “Soluble” each time. For the same molecule, the ΔTm in data set [4] was determined as 2.8 °C. Besides, the deltaTm is > 1 K in data set [5], > 0.5 K in [7] and > 0.5 K in data set [9]. For the same molecule, the outcome in data set [8] was Active.
As to `Cc1ccc(C(=O)Nc2ccc3nc(N4CCCC4)sc3c2)cc1[N+](=O)[O-]`, the IC50 in [1] was > 100 µM. Further, in data set [2], the inhibition was 72.4%. The solubility result in data set [3] and in data set [6] was “Soluble” throughout. Also, the ΔTm in data set [4] turned out to be 2.01 °C. For the same molecule, the deltaTm in data set [5] was > 1 K; in [7] it was > 0.5 K; in data set [9] it was > 0.5 K. In addition, the outcome in data set [8] was Active.
Turning to `Cc1ccc(S(=O)(=O)Nc2ccc3c(c2)n(C)c(=O)n3C)c(C)c1`, the IC50 in data set [1] worked out at 2.5 µM.
With `CC1(C)C(=O)Nc2cc(C(=O)O)ccc21`, the solubility result in data set [3] and in data set [6] was “Soluble” in each case. Also, the ΔTm in [4] is 2.1 °C. In addition, the deltaTm in data set [5] is > 1 K; in [7], > 0.5 K; in data set [9] it was > 0.5 K. In data set [8], the result was Active.
For the molecule `Cc1nc2ccc(C(=O)O)cc2o1`, the solubility result in data set [3] and in [6] was “Soluble” each time. In data set [4], the ΔTm is -2.1 °C. The deltaTm is > 1 K in data set [5], > 0.5 K in [7] and > 0.5 K in data set [9]. Also, the result in data set [8] was Active.
Regarding `CC1Oc2ccc(N)cc2NC1=O` (centres undefined), the solubility entry in [3] and in data set [6] was “Soluble” each time. Further, in data set [4], the ΔTm was 2.8 °C. Besides, the deltaTm in [5] is > 1 K; in data set [7], > 0.5 K; in data set [9], > 0.5 K. The outcome in data set [8] was Active.
Turning to `COCCOc1ccccc1CNc1ccc2c(c1)n(C)c(=O)n2C`, the half-maximal inhibitory concentration (IC50) in data set [1] was determined as 21 µM. Besides, the inhibition in [2] came to 63.4%. The solubility entry in [3] and in data set [6] was “Soluble” in each case. In addition, in data set [4], the shift in melting temperature (ΔTm) came out at 1.39 °C. The deltaTm is > 1 K in [5], > 0.5 K in data set [7] and > 0.5 K in data set [9]. The outcome in data set [8] was Active.
Regarding `CC1CCCC(C)N1C(=O)CSc1nc2sc3c(c2c(=O)n1C)CCCC3` (centres undefined), the 50% inhibitory concentration (IC50) in data set [1] is > 100 µM. In [2], the inhibition was 68.2%. Further, the solubility result in data set [3] and in [6] was “Soluble” throughout. Moreover, the ΔTm in [4] is -1.85 °C. Besides, the deltaTm was > 1 K in data set [5], > 0.5 K in data set [7] and > 0.5 K in [9]. Also, the outcome in data set [8] was inactive.
